Test results reported in patent US20130040952A1 (priority 2011, published 2013).
Where a SMILES comes first, the peptide text is derived from it. Bridges are numbered along the chain shown (N, C = ends).

How the values were obtained:
WSN virus = assay: microbe, parasite or virus in culture; settings: unidentified influenza virus, MDCK, 48 h, read-out: IC50 (μM), antiinfluenza
[1] = Cytotoxicity assay in MDCK cells (MTS); assay type: cell-based; settings: dog; concentration needed to inhibit 50% growth of MDCK cells in 48 h
Experimental: In a 96-well plate, 1×10^4 MDCK cells were seeded per well and incubated for 24 h at 37° C. The MDCK cells were then incubated with compounds for 48 h at 35° C. The number of metabolically viable cells was determined by the MTS assay (Promega).

NP WT trimer = NP WT trimer (Influenza A virus, UniProt P15682); assay type: binding, influenza A virus (WSN)
[2] = system: RDRP activity of WSN virus; assay type: biochemical, Influenza virus A/WSN/33 (H1N1)
rWSN virus (parental) = assay: microbe, parasite or virus in culture; assay type: cell-based; settings: unidentified influenza virus, MDCK, 48 h, read-out: Anti-rWSN IC50 (μM), parental

Chain of NP WT trimer (P15682 whole entry, looked up): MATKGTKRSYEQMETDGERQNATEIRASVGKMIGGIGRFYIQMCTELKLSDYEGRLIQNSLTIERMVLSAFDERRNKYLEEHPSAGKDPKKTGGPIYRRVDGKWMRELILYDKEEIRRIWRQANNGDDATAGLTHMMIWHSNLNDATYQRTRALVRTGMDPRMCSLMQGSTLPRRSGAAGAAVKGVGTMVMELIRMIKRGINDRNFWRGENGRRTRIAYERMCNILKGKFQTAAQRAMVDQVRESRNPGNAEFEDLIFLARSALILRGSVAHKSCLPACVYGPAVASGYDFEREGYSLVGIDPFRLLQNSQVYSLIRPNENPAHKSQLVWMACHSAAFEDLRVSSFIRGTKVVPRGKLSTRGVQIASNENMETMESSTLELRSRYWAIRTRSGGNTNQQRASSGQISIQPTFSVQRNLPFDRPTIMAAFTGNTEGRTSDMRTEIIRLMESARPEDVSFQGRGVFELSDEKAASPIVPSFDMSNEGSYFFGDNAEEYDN

With CCCCCC(=O)NCC(=O)Nc1cc(Cl)ccc1Cl [compound 3] the IC50 (WSN virus) was 118 µM, the CC50 at 48 h [1] was greater than 100 µM and the “effect of compounds on NP WT trimer (AUC)” value (“effect of compounds” for short) (NP WT trimer) was “able to disrupt NP trimerization and induce formation of NP monomers”.

For CC(C)[C@@H]1NC(=O)[C@H](CO)NC(=O)[C@H](Cc2ccccc2)NC(=O)[C@H]([C@@H](C)O)NC(=O)[C@@H](N)CSSC[C@@H](C(=O)O)NC(=O)[C@H](CC(N)=O)NC(=O)[C@H](CCCNC(=N)N)NC(=O)[C@H](CCC(N)=O)NC1=O [peptide 2], the CC50 at 48 h [1] was greater than 2000 µM, the “inhibition of viral transcription activity” value [2] was “reduce the viral transcription activity” and the “effect of peptides on WT NP trimerization (AUC)” value (from here on “effect of peptides”) (NP WT trimer) was “the effect was substantially enhanced”.

In the case of TFDSVQRN [peptide 1], the “effect of peptides” value (NP WT trimer) is reported as “disrupted WT NP trimerization only slightly”.

With Cc1onc(-c2ccccc2)c1C(=O)N1CCN(c2ccc([N+](=O)[O-])cc2Cl)CC1 [nucleozin, reference compound] the “effect of compounds” value (NP WT trimer) was “caused aggregation of the NP trimer”.

In the case of CCCCCCCCC(=O)NCC(=O)Nc1cccc(F)c1 [compound 2], the IC50 (WSN virus) is reported as 37.5 µM, the CC50 at 48 h [1] is reported as greater than 100 µM and the “effect of compounds” value (NP WT trimer) is reported as “able to disrupt NP trimerization and induce formation of NP monomers”.

In the case of CC(C)C[C@@H]1NC(=O)[C@H](CC(N)=O)NC(=O)[C@H](CCCNC(=N)N)NC(=O)[C@H](CCC(N)=O)NC(=O)[C@H](C(C)C)NC(=O)[C@H](CO)NC(=O)[C@H](Cc2ccccc2)NC(=O)[C@H]([C@@H](C)O)NC(=O)[C@@H]2CCCN2C(=O)[C@H](CCC(N)=O)NC(=O)[C@@H](N)CSSC[C@@H](C(=O)O)NC1=O [peptide 3] (H-CQPTFSVQRNLC-OH; disulfide 1-12), the CC50 at 48 h [1] is reported as greater than 2000 µM, the “inhibition of viral transcription activity” value [2] is reported as “reduce the viral transcription activity” and the “effect of peptides” value (NP WT trimer) is reported as “showed a slightly greater effect”.

For Cc1cccc(CSc2nc(=O)n(CCCO)c3c2CCC3)c1 [compound 4], the IC50 (WSN virus) was 39.7 µM, the CC50 at 48 h [1] was greater than 100 µM and the “effect of compounds” value (NP WT trimer) was “able to disrupt NP trimerization and induce formation of NP monomers”.

For O=C(NCCCN1CCOCC1)c1csc(Nc2ccc(Cl)c(Cl)c2)n1 [compound 1], the IC50 (rWSN virus (parental)) was 1.7 µM, the IC50 (WSN virus) was 2.7 µM and the CC50 at 48 h [1] was 35.6 µM. For the same compound, the “effect of compounds” value (NP WT trimer) was “able to disrupt NP trimerization and induce formation of NP monomers”.
